# Source: patent US6579902B1, “Ribose-substituted aromatic amides, method for the production and use thereof as medicaments” (Aventis Pharma S.A., priority 1999, dated 2003)
# Key:
# Format in all cases: cell-based
# [1] = test system: Staph. epidermidis 0126042; assay: MIC, method of dilutions in a liquid medium; details: incubation 24 hours at 37° C.
# Description: (§1) A—Method of Dilutions in a Liquid Medium
# (§2) A series of tubes was prepared in which the same quantity of sterile nutritive medium is distributed. Increasing quantities of the product to be studied are distributed in each tube, then each tube is seeded with a bacterial strain. After incubation for 24 hours in an oven at 37° C., the growth inhibition is evaluated by transillumination which allows the minimum inhibitory concentrations (M.I.C) to be determined, expressed in micrograms/cm^3.
# Entero faecalis 02D2UC5 = assay: MIC, method of dilutions in a liquid medium; details: incubation 24 hours at 37° C.
# Description: as §1, §2
# Entero faecium 02D3IP2 = assay: MIC, method of dilutions in a liquid medium; details: incubation 24 hours at 37° C.
# Description: as §1, §2
# Strepto. pyogene 02A1UC1 = assay: MIC, method of dilutions in a liquid medium; details: incubation 24 hours at 37° C.
# Description: as §1, §2
# [2] = test system: Staph. Coag. Negative 012HT5; assay: MIC, method of dilutions in a liquid medium; details: incubation 24 hours at 37° C.
# Description: as §1, §2
# Staph. aureus 011HT18 = assay: MIC, method of dilutions in a liquid medium; details: incubation 24 hours at 37° C.
# Description: as §1, §2
# [3] = test system: Strepto pneumoniae 030BI2; assay: MIC, method of dilutions in a liquid medium; details: incubation 24 hours at 37° C.
# Description: as §1, §2
# bacterial strain = assay: Activity in vitro, method of dilutions in a liquid medium (overall statement); details: summary of the MIC test on the listed strains
# Description: as §1, §2
SMILES,MIC [1],MIC (Entero faecalis 02D2UC5),MIC (Entero faecium 02D3IP2),MIC (Strepto. pyogene 02A1UC1),MIC [2],MIC (Staph. aureus 011HT18),MIC [3],activity in vitro (in words) (bacterial strain)
"C#CCONC(=O)OC1C(O)C(c2ccc3c(O)c(NC(=O)c4ccccc4)c(=O)oc3c2C)OC2(CCCC2)C1OC (stereo not drawn) [EX. 10, [7R-(7.α.,8.β,9.β,10.α)]-(2-Propynyloxy)-carbamate of 8-Hydroxy-7-[4-hydroxy-8-methyl-2-oxo-3-(benzoylamino)-2H-1-benzopyran-7-yl)-10-methoxy-6-oxaspiro[4,5]decan-9-yl]",≦0.04 μg/ml,1.2 µg/mL,0.63 µg/mL,0.16 µg/mL,0.08 µg/mL,≦0.04 μg/ml,≦0.04 μg/ml,excellent activity
"C#CCONC(=O)OC1CC(c2ccc3c(O)c(NC(=O)C(C)C)c(=O)oc3c2C)OC2(CCCC2)C1OC (stereo not drawn) [EX. 11, [7R-(7.α.,8β.,9β.,10.α)]-(2-Propynyloxy)-carbamate of 7-[4-Hydroxy-8-methyl-3-[(2-methyl-1-oxo-propyl)amino]-2-oxo-2H-1-benzopyran-7-yl]-10-methoxy-6-oxaspiro[4,5]decan-9-yl]",≦0.04 μg/ml,0.63 µg/mL,0.32 µg/mL,0.08 µg/mL,0.15 µg/mL,≦0.04 μg/ml,≦0.04 μg/ml,excellent activity
